Measurements reported in patent publication US10959432B2, “Microbiocidal oxadiazole derivatives” (Syngenta Participations AG, priority 2016, dated 2021).

Assays:
[1] = test system: Puccinia recondita f. sp. tritici; assay: Fungicidal activity against Puccinia recondita f. sp. tritici / wheat / leaf disc preventative (brown rust); format: in vivo; details: foliar, 200 ppm in the applied formulation, wheat leaf segments cv. Kanzler, preventative (inoculated 1 day after application), assessed 7 to 9 days after application, read-out: disease control compared to untreated control leaf disks
In short: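 Preventative leaf-segment test: compound sprayed at 200 ppm onto wheat (cv. Kanzler) segments, brown rust spores applied 1 day after. Kept at 19C and 75% rh under 12 h light/dark cycles; disease control versus untreated check read 7 to 9 days post-application.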

[2] = test system: Puccinia recondita f. sp. tritici; assay: Fungicidal activity against Puccinia recondita f. sp. tritici / wheat / leaf disc curative (brown rust); format: in vivo; details: foliar, 200 ppm in the applied formulation, wheat leaf segments cv. Kanzler, curative (applied 1 day after inoculation), assessed 6 to 8 days after application, read-out: disease control compared to untreated control leaf disks
In short: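 Curative test: compound, diluted from DMSO stock into water, applied one day after spore inoculation of wheat (cv. Kanzler) leaf segments kept on agar in darkness at 19° C. and 75% RH. Climate-cabinet incubation (19° C., 75% RH, 12 h photoperiod); disease control relative to untreated read 6–8 days post-application.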

Phakopsora pachyrhizi = assay: Fungicidal activity against Phakopsora pachyrhizi / soybean / leaf disc preventative (Asian soybean rust); format: in vivo; details: foliar, 200 ppm in the applied formulation, soybean leaf disks, preventative (inoculated one day after application), assessed 12 to 14 days after application, read-out: disease control compared to untreated control leaf disks
In short: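 Preventative test: compound applied to soybean leaf discs a day before spore inoculation of the lower surface. Discs kept at 20° C and 75% rh, first 24-36 h in darkness, then under 12 h light/day; disease control relative to untreated discs rated 12 to 14 days post-application.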

[3] = test system: Glomerella laqenarium (Colletotrichum lagenarium); assay: Fungicidal activity against Glomerella lagenarium (Colletotrichum lagenarium) liquid culture / cucumber / preventative (anthracnose); format: cell-based; details: Colletotrichum orbiculare; 20 ppm in the applied formulation; liquid culture in PDB, 24° C., 3 to 4 days after application; read-out: disease control compared to untreated control (inhibition of growth measured photometrically)
In short: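 Test compound, applied from DMSO solution, is combined with PDB containing conidia taken from cryogenic storage. After 3–4 days at 24 °C, growth is measured photometrically and antifungal activity expressed as percent relative to untreated control.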

Uromyces viciae-fabae = assay: Fungicidal activity against Uromyces viciae-fabae / field bean / leaf disc preventative (faba-bean rust); format: in vivo; details: foliar, 288 h, 100 ppm in the applied formulation, field bean leaf discs, preventative (inoculated two hours after application), assessed 12 days after application, read-out: disease control compared to untreated control leaf discs
In short: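 Field bean leaf discs on water agar treated with 10 μl compound in acetone plus spreader, then spray-inoculated on the lower surface with Uromyces viciae-fabae spores 2 h later. Incubation at 22 °C, 18 h day, 70% RH; percent disease control versus untreated scored 12 days after application, compounds at 100 ppm.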

Row | Structure (SMILES) | pest or weed control at 200 ppm [1] [%] | pest or weed control at 200 ppm [2] [%] | pest or weed control at 200 ppm (Phakopsora pachyrhizi) [%] | inhibition at 20 ppm [3] [%] | pest or weed control at 100 ppm (Uromyces viciae-fabae) [%] | melting point [°C]
1 | CN(Cc1cccs1)C(=O)c1ccc(-c2noc(C(F)(F)F)n2)cc1F [Compound 5b.2, 2-fluoro-N-methyl-N-(2-thienylmethyl)-4-[5-(trifluoromethyl)-1,2,4-oxadiazol-3-yl]benzamide] | ≥ 80 | ≥ 80 | ≥ 80 | ≥ 80 | ≥ 80 | 
2 | CN(CC(=O)NC(C)(C)C)C(=O)c1ccc(-c2noc(C(F)(F)F)n2)cc1 [Compound 3a.3, N-[2-(tert-butylamino)-2-oxo-ethyl]-N-methyl-4-[5-(trifluoromethyl)-1,2,4-oxadiazol-3-yl]benzamide] | ≥ 80 | ≥ 80 | ≥ 80 | ≥ 80 | ≥ 80 | 
3 | O=C(NC1CCCC1(F)F)c1ccc(-c2noc(C(F)(F)F)n2)cc1 (stereo not shown) [Compound 2a.9, N-(2,2-difluorocyclopentyl)-4-[5-(trifluoromethyl)-1,2,4-oxadiazol-3-yl]benzamide] | ≥ 80 | ≥ 80 | ≥ 80 | ≥ 80 | ≥ 80 | 
4 | CC(NC(=O)c1ccc(-c2noc(C(F)(F)F)n2)cc1F)C1CC1 (stereo not shown) [Compound 2b.5, N-(1-cyclopropylethyl)-2-fluoro-4-[5-(trifluoromethyl)-1,2,4-oxadiazol-3-yl]benzamide] | ≥ 80 | ≥ 80 | ≥ 80 | ≥ 80 | ≥ 80 | 
5 | O=C(NCc1nccs1)c1ccc(-c2noc(C(F)(F)F)n2)cc1F [Compound 5b.19, 2-fluoro-N-(thiazol-2-ylmethyl)-4-[5-(trifluoromethyl)-1,2,4-oxadiazol-3-yl]benzamide] | ≥ 80 | ≥ 80 | ≥ 80 | ≥ 80 | ≥ 80 | 
6 | O=C(NCc1nccs1)c1ccc(-c2noc(C(F)(F)F)n2)cc1 [Compound 5a.10, N-(thiazol-2-ylmethyl)-4-[5-(trifluoromethyl)-1,2,4-oxadiazol-3-yl]benzamide] | ≥ 80 | ≥ 80 | ≥ 80 | ≥ 80 | ≥ 80 | 
7 | Cc1ccc(CNC(=O)c2ccc(-c3noc(C(F)(F)F)n3)cc2F)o1 [Compound 5b.9, 2-fluoro-N-[(5-methyl-2-furyl)methyl]-4-[5-(trifluoromethyl)-1,2,4-oxadiazol-3-yl]benzamide] | ≥ 80 | ≥ 80 | ≥ 80 | ≥ 80 | ≥ 80 | 
8 | O=C(NCCOC(F)F)c1ccc(-c2noc(C(F)(F)F)n2)cc1 [Compound 3a.45, N-[2-(difluoromethoxy)ethyl]-4-[5-(trifluoromethyl)-1,2,4-oxadiazol-3-yl]benzamide] | ≥ 80 | ≥ 80 | ≥ 80 | ≥ 80 |  | 117 to 120
9 | CN(CC1COCCO1)C(=O)c1ccc(-c2noc(C(F)(F)F)n2)cc1F (stereo not shown) [Compound 1b.9, N-(1,4-dioxan-2-ylmethyl)-2-fluoro-N-methyl-4-[5-(trifluoromethyl)-1,2,4-oxadiazol-3-yl]benzamide] | ≥ 80 | ≥ 80 | ≥ 80 | ≥ 80 | ≥ 80 | 
10 | Cc1ccc(CNC(=O)c2ccc(-c3noc(C(F)(F)F)n3)cc2Cl)o1 [Compound 5b.16, 2-chloro-N-[(5-methyl-2-furyl)methyl]-4-[5-(trifluoromethyl)-1,2,4-oxadiazol-3-yl]benzamide] | ≥ 80 | ≥ 80 | ≥ 80 | ≥ 80 | ≥ 80 | 
11 | O=C(NCc1ncc(C(F)(F)F)cc1Cl)c1ccc(-c2noc(C(F)(F)F)n2)cc1F [Compound 5b.4, N-[[3-chloro-5-(trifluoromethyl)-2-pyridyl]methyl]-2-fluoro-4-[5-(trifluoromethyl)-1,2,4-oxadiazol-3-yl]benzamide] |  |  | ≥ 80 |  | ≥ 80 | 126.6 to 128.3
12 | O=C(NCC1CC(F)(F)C1(F)F)c1ccc(-c2noc(C(F)(F)F)n2)cc1F (stereo not shown) [Compound 2b.4, 2-fluoro-N-[(2,2,3,3-tetrafluorocyclobuty)methyl]-4-[5-(trifluoromethyl)-1,2,4-oxadiazol-3-yl]benzamide] | ≥ 80 | ≥ 80 | ≥ 80 | ≥ 80 | ≥ 80 | 
13 | O=C(NCCc1cccs1)c1ccc(-c2noc(C(F)(F)F)n2)cc1F [Compound 5b.13, 2-fluoro-N-[2-(2-thienyl)ethyl]-4-[5-(trifluoromethyl)-1,2,4-oxadiazol-3-yl]benzamide] | ≥ 80 | ≥ 80 | ≥ 80 | ≥ 80 | ≥ 80 | 
14 | O=C(NCCc1ncc(C(F)(F)F)cc1Cl)c1ccc(-c2noc(C(F)(F)F)n2)cc1F [Compound 5b.5, N-[2-[3-chloro-5-(trifluoromethyl)-2-pyridyl]ethyl]-2-fluoro-4-[5-(trifluoromethyl)-1,2,4-oxadiazol-3-yl]benzamide] |  |  | ≥ 80 |  | ≥ 80 | 144.9 to 146.5
15 | O=C(NCc1cccc(F)c1)c1ccc(-c2noc(C(F)(F)F)n2)cc1F [Compound 4b.4, 2-fluoro-N-[(3-fluorophenyl)methyl]-4-[5-(trifluoromethyl)-1,2,4-oxadiazol-3-yl]benzamide] | ≥ 80 |  | ≥ 80 |  | ≥ 80 | 129.4 to 130.9
16 | COc1ccc(CNC(=O)c2ccc(-c3noc(C(F)(F)F)n3)cc2)c(OC)c1 [Compound 4a.13, N-[(2,4-dimethoxyphenyl)methyl]-4-[5-(trifluoromethyl)-1,2,4-oxadiazol-3-yl]benzamide] | ≥ 80 | ≥ 80 | ≥ 80 | ≥ 80 | ≥ 80 | 
17 | O=C(NC1CCCSC1)c1ccc(-c2noc(C(F)(F)F)n2)cc1F (stereo not shown) [Compound 1b.5, 2-fluoro-N-tetrahydrothiopyran-3-yl-4-[5-(trifluoromethyl)-1,2,4-oxadiazol-3-yl]benzamide] | ≥ 80 | ≥ 80 | ≥ 80 | ≥ 80 | ≥ 80 | 
18 | CN(Cc1ccc(Cl)nc1)C(=O)c1ccc(-c2noc(C(F)(F)F)n2)cc1 [Compound 5a.9, N-[(6-chloro-3-pyridyl)methyl]-N-methyl-4-[5-(trifluoromethyl)-1,2,4-oxadiazol-3-yl]benzamide] | ≥ 80 | ≥ 80 | ≥ 80 | ≥ 80 | ≥ 80 | 
19 | CC(COC(F)F)NC(=O)c1ccc(-c2noc(C(F)(F)F)n2)cc1 (stereo not shown) [Compound 3a.43, N-[2-(difluoromethoxy)-1-methyl-ethyl]-4-[5-(trifluoromethyl)-1,2,4-oxadiazol-3-yl]benzamide] | ≥ 80 | ≥ 80 | ≥ 80 | ≥ 80 |  | 128 to 130
20 | O=C(NC1CCC1)c1ccc(-c2noc(C(F)(F)F)n2)cc1F [Compound 2b.3, N-cyclobutyl-2-fluoro-4-[5-(trifluoromethyl)-1,2,4-oxadiazol-3-yl]benzamide] | ≥ 80 | ≥ 80 | ≥ 80 | ≥ 80 | ≥ 80 | 
21 | O=C(NCc1ccco1)c1ccc(-c2noc(C(F)(F)F)n2)cc1F [Compound 5b.11, 2-fluoro-N-(2-furylmethyl)-4-[5-(trifluoromethyl)-1,2,4-oxadiazol-3-yl]benzamide] | ≥ 80 | ≥ 80 | ≥ 80 | ≥ 80 | ≥ 80 | 
